Values of other authors as cited in article PMC2913283 (Bioconjugate chemistry, 2010).

Conditions: initial studies

Diethylenetriaminepenatacetic acid-(DTPA-Al^18F) complexes
stability in vitro: not stable in vitro
